According to patent US12404304B1, “Telomerase reverse transcriptase (TERT) expression enhancing compounds and methods for using the same” (Sierra Sciences, LLC, priority 2007, dated 2025):

Columns and labels:
viable cells in culture = experiment: Cell viability assay (CellTiter-Glo Luminescent Cell Viability Assay, ATP quantitation, percent of vehicle control)
Description: Cell viability is determined using a homogeneous method, such as CellTiter-Glo® Luminescent Cell Viability Assay (Promega Corporation, Madison, WI.) to determine the number of viable cells in culture These assays are based on quantitation of the ATP present, which signals the presence of metabolically active cells. Luminescent values of compound treated cells are compared to that of cells treated with vehicle alone to determine the average cell viability as a percent of control.

[1] = tested on: human TERT expression (hTERT mRNA); experiment: Quantitative real-time RT-PCR of hTERT mRNA expression (Ct, transcripts) in compound-treated cells; type: cell-based; conditions: quantitative real-time RT-PCR
Text: Telomerase is a ribonucleoprotein complex composed of the catalytic protein subunit (human telomerase reverse transcriptase or hTERT) and the RNA template. hTERT expression level can be measured by PCR.
Briefly, amplification of the target sequence is monitored per PCR cycle by detecting the fluorescence signal emitted by an internal probe that is degraded by the 5′ nuclease activity of the Taq polymerase. The emission signal accumulates in each sample, and the Ct required to reach a given fluorescence threshold is determined (Ct stands for Cycle Threshold and is a measure of the number of PCR cycles that are required to amplify a target—thus, a lower Ct score means that there is more abundant hTERT mRNA). Thus, the Ct value of a sample inversely correlates to the quantity of the starting cDNA which correlates to the number of mRNA transcripts. Using the cDNA of known quantity, a standard curve can be generated and used to determine the starting amount of mRNA transcripts based on the […] of each sample.
Quantitative real-time PCR can be done on cDNA from test compound-treated and nontreated cells by use of a ABI Prism 7900 Sequence Detection System (PE Applied Biosystems, Foster City, CA) following the Assays-on-Demand protocol (PE Applied Biosystems, Foster City, CA). Quantitative data can be analyzed using the Sequence Detection System software version 2.1 (PE Applied Biosystems).
The following compounds were tested in assays designed to identify compounds that enhance human TERT expression.

SMILES | Average Cell Viability after 24 Hours (% DMSO) (viable cells in culture) | Average Number of hTERT Transcripts [1]
O=C(NCCCn1ccnc1)c1cc(-c2ccc(F)cc2)on1 [compound 1179] | 97.79 % DMSO | 3.70
CCCNC(=O)c1cc(-c2ccc(F)cc2)on1 [compound 1180] | 81.47 % DMSO | 56.10
CCCCNC(=O)c1cc(-c2ccc(F)cc2)on1 [compound 1181] | 85.44 % DMSO | 24.74
C=CCNC(=O)c1cc(-c2ccc(F)cc2)on1 [compound 1182] | 87.44 % DMSO | 19.03
O=C(NCCCN1CCOCC1)c1cc(-c2cccs2)on1 [compound 1183] | 88.76 % DMSO | 37.61
O=C(NC1CCCC1)c1cc(-c2cccs2)on1 [compound 1184] | 88.36 % DMSO | 73.49
O=C(NCCc1ccccc1)c1cc(-c2cccs2)on1 [compound 1185] | 80.02 % DMSO | 20.89
O=C(NCCCn1ccnc1)c1cc(-c2cccs2)on1 [compound 1186] | 94.79 % DMSO | 367.36
O=C(NCCN1CCOCC1)c1cc(-c2cccs2)on1 [compound 1187] | 95.94 % DMSO | 61.19
CCCNC(=O)c1cc(-c2cccs2)on1 [compound 1188, 5-thiophen-2-yl-isoxazole-3-carboxylic acid propylamide] | 88.71 % DMSO | 295.07
CC(C)CNC(=O)c1cc(-c2cccs2)on1 [compound 1189] | 83.26 % DMSO | 73.15
CCCNC(=O)c1cc(-c2ccco2)on1 [compound 1190] | 96.27 % DMSO | 41.79
CCCCNC(=O)c1cc(-c2ccco2)on1 [compound 1191] | 95.11 % DMSO | 164.47
C=CCNC(=O)c1cc(-c2cccs2)on1 [compound 1192] | 95.64 % DMSO | 279.74
COc1ccc(-c2n[nH]c3c2C(c2ccc(O)cc2)N(c2ccc(Br)cc2)C3=O)cc1 (centres unmarked) [compound 1193] | 22.74 % DMSO | 3.56
CCOC(=O)c1ccc(N2C(=O)c3[nH]nc(-c4ccccc4)c3C2c2ccccc2OC)cc1 (centres unmarked) [compound 1194] | 76.71 % DMSO | 6.20
Cc1cccnc1Nc1nc(-c2ccccn2)cs1 [compound 1195] | 95.66 % DMSO | 220.50
COCCNC(=O)c1cc(-c2cccs2)on1 [compound 1196] | 98.07 % DMSO | 163.15
CCCCNC(=O)c1cc(-c2cccs2)on1 [compound 1197] | 88.24 % DMSO | 168.54
CCOC(=O)c1ccc(N2C(=O)c3[nH]nc(-c4ccco4)c3C2c2ccc(O)cc2)cc1 (centres unmarked) [compound 1198] | 64.75 % DMSO | 104.02
CCOC(=O)c1ccc(N2C(=O)c3[nH]nc(-c4cccs4)c3C2c2ccc(O)c(OCC)c2)cc1 (centres unmarked) [compound 1199] | 57.55 % DMSO | 110.78
CCCc1nnc(NC(=O)CSc2nnc(-c3cccs3)o2)s1 [compound 1200] | 74.03 % DMSO | 198.48
O=C(Nc1nc(-c2ccccn2)cs1)c1nc2ccccc2s1 [compound 1201] | 74.59 % DMSO | 49.55
O=C(CS(=O)(=O)c1ccccc1)Nc1nc(-c2ccccn2)cs1 [compound 1202] | 72.91 % DMSO | 141.08
O=C(CS(=O)(=O)c1ccc(F)cc1)Nc1nc(-c2ccccn2)cs1 [compound 1203] | 73.09 % DMSO | 119.23
